Consider 15 compounds from US20060069132A1, “Azolecarboxamide herbicides” (priority 2004, published 2006).

One assay deals with morningglory. Description: Test A pre-/postemergence herbicide test. In kind it is in vivo, Ipomoea spp. The method, boiled down:
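Visual injury rating on a 0–100 scale (0 no effect, 100 complete control) versus untreated controls, about ten days after treatment in greenhouse. Pre: directed soil spray onto seeded sandy loam. Post: spray to runoff on plants 2–10 cm tall at one- to two-leaf stage.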

The next assay deals with rice. Nature of the assay: Test C flooded paddy test. In kind it is in vivo, Oryza sativa. Conditions: for Plant response rating, Rice: visual rating after 12 to 14 days. The method, boiled down:
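Postemergence sprays applied to plants 2 to 18 cm tall (1- to 4-leaf stage); paddy species grown to 2-leaf stage under flooding. After 12 to 14 days in greenhouse, visual rating versus untreated controls on 0–100 scale (0 no effect, 100 complete control).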

Setting [1] is: Postemergence, 500 g ai/ha, 0 to 100 scale, 0 no effect, 100 complete control.
The mark [2] stands for this setting: Postemergence, 2000 g ai/ha, 0 to 100 scale, 0 no effect, 100 complete control.
Where [3] appears, read: Preemergence, 2000 g ai/ha, visual rating, 0 to 100 scale (0 no effect, 100 complete control).
The mark [4] stands for this setting: preemergence, 500 g ai/ha, visual injury, 0 to 100 scale (0 no effect, 100 complete control).
[5] abbreviates: 62 g ai/ha, scale 0 to 100 (0 no effect, 100 complete control).
Where [6] appears, read: 125 g ai/ha, scale 0 to 100 (0 no effect, 100 complete control).
The mark [7] stands for this setting: 250 g ai/ha, scale of 0 to 100, 0 is no effect, 100 is complete control.
Setting [8] is: 500 g ai/ha, scale 0 to 100 (0 no effect, 100 complete control).
The mark [9] stands for this setting: Preemergence, 500 g ai/ha, visual rating, 0 to 100 scale (0 no effect, 100 complete control).
The mark [10] stands for this setting: 125 g ai/ha, scale of 0 to 100, 0 is no effect, 100 is complete control.

Regarding `CCc1nc(C(C)(C)C)sc1C(=O)Nc1cccc(C(=O)NCCF)c1` [Compound 209], the “Morningglory plant response rating” value in the assay with morningglory (setting [1]) amounted to 0; in the assay on morningglory (setting [3]), 40; in the assay with morningglory (setting [4]), 20. For the same compound, in the assay on morningglory (setting [2]), the “Plant response rating, Morningglory” value was found to be 15. Also, the “Rice plant response rating” value in the assay with rice (setting [5]) turned out to be 0; in the assay on rice (setting [6]) it was 45; in the assay on rice (setting [7]) it was 45. For the same compound, in the assay on rice (setting [8]), the “Plant response rating, Rice” value amounted to 65.
For `CCn1nc(C(C)(C)C)cc1C(=O)Nc1cc(C(=O)NCC2CC2)ccn1` [Compound 155], the “Rice plant response rating” value in the assay with rice (setting [5]), in the assay on rice (setting [6]) and in the assay on rice (setting [7]) was 0 each time. For the same compound, the “Plant response rating, Rice” value in the assay on rice (setting [8]) stood at 35.
On to `CCn1nc(C(C)(C)C)cc1C(=O)Nc1cncc(C(=O)N2CC=CC2)n1` [Compound 290], for which the “Morningglory plant response rating” value turned out to be 20 with morningglory (setting [1]), 40 in the assay with morningglory (setting [3]) and 10 in the assay on morningglory (setting [4]). Moreover, in the assay on morningglory (setting [2]), the “Plant response rating, Morningglory” value stood at 30. Besides, the “Rice plant response rating” value was determined as 0 with rice (62 g ai/ha, scale 0 to 100); 0 in the assay on rice (setting [6]); 15 with rice (setting [7]). The “Plant response rating, Rice” value in the assay with rice (setting [8]) amounted to 45.
In the case of `CCc1nc(C(C)(C)C)sc1C(=O)Nc1cccc(C(=O)NC(C)(C)C)n1` [Compound 216], the “Morningglory plant response rating” value worked out at 20 with morningglory (setting [1]), 15 with morningglory (setting [3]) and 0 with morningglory (setting [4]). In the assay with morningglory (setting [2]), the “Plant response rating, Morningglory” value stood at 20. Also, the “Rice plant response rating” value in the assay with rice (setting [5]), with rice (setting [6]) and in the assay on rice (setting [7]) was 0 each time. Further, the “Plant response rating, Rice” value in the assay on rice (setting [8]) is 30.
With `CCn1nc(C(C)(C)C)cc1C(=O)Nc1cccc(C(=O)NC(C)C)c1` [Compound 51], the “Morningglory plant response rating” value is given as 10 in the assay on morningglory (Postemergence, 125 g ai/ha, 0 to 100 scale, 0 no effect, 100 complete control); 15 in the assay with morningglory (setting [9]); 10 with morningglory (preemergence, 125 g ai/ha, visual injury, 0 to 100 scale (0 no effect, 100 complete control)). The “Plant response rating, Morningglory” value with morningglory (setting [1]) was 35. Besides, the “Rice plant response rating” value in the assay on rice (setting [5]) was determined as 0; with rice (setting [10]), 0; in the assay on rice (setting [7]), 15. Also, in the assay with rice (setting [8]), the “Plant response rating, Rice” value is on record as 50.
Turning to `CCOc1cccc(NC(=O)c2cc(C(C)(C)C)nn2CC)c1` [Compound 136], the “Morningglory plant response rating” value in the assay on morningglory (setting [1]) is 20; in the assay on morningglory (setting [9]) it was 20; with morningglory (setting [3]), 45. The “Plant response rating, Morningglory” value in the assay on morningglory (setting [2]) was 40. Besides, the “Rice plant response rating” value is 30 with rice (setting [5]), 35 with rice (setting [6]) and 50 with rice (setting [7]). The “Plant response rating, Rice” value in the assay on rice (setting [8]) is given as 70.
On to `CCn1nc(C(C)(C)C)cc1C(=O)Nc1cccc(C(C)=O)c1` [Compound 122], for which the “Morningglory plant response rating” value is 30 with morningglory (setting [1]), 25 in the assay with morningglory (setting [9]) and 30 in the assay on morningglory (setting [3]). For the same compound, the “Plant response rating, Morningglory” value in the assay with morningglory (setting [2]) worked out at 65. Besides, the “Rice plant response rating” value with rice (setting [5]) amounted to 0; with rice (setting [10]) it was 10; in the assay on rice (setting [7]), 10. Further, the “Plant response rating, Rice” value in the assay with rice (setting [8]) was 50.
As for `CCn1nc(C(C)(C)C)cc1C(=O)Nc1cccc(OS(=O)(=O)CC)c1` [Compound 408], the “Rice plant response rating” value in the assay with rice (62 g ai/ha, scale 0 to 100) is given as 25; in the assay with rice (setting [6]), 35; in the assay with rice (setting [7]), 45. Further, in the assay on rice (setting [8]), the “Plant response rating, Rice” value is given as 55.
With `CCn1nc(C(C)(C)C)cc1C(=O)Nc1nc(C(=O)N2CC=CC2)ccc1F` [Compound 281], the “Morningglory plant response rating” value with morningglory (setting [1]) came out at 10; in the assay with morningglory (setting [3]), 25; in the assay on morningglory (setting [4]) it was 5. Besides, in the assay with morningglory (setting [2]), the “Plant response rating, Morningglory” value worked out at 15. For the same compound, the “Rice plant response rating” value worked out at 0 in the assay with rice (62 g ai/ha, scale 0 to 100); 0 with rice (setting [6]); 15 in the assay with rice (setting [7]). Moreover, the “Plant response rating, Rice” value in the assay with rice (setting [8]) is on record as 50.
Regarding `CCNC(=O)c1ccc(F)c(NC(=O)c2cc(C(C)(C)C)nn2CC)n1` [Compound 278], the entries for the “Morningglory plant response rating” value in the assay with morningglory (setting [1]), with morningglory (setting [3]) and in the assay on morningglory (setting [4]) were 10, 25 and 10, respectively. Besides, in the assay with morningglory (setting [2]), the “Plant response rating, Morningglory” value is listed as 5. For the same compound, the “Rice plant response rating” value in the assay on rice (62 g ai/ha, scale 0 to 100) is given as 0; in the assay on rice (setting [6]) it was 0; in the assay with rice (setting [7]) it was 15. For the same compound, the “Plant response rating, Rice” value with rice (setting [8]) came out at 30.
In the case of `C#CCNC(=O)c1cc(NC(=O)c2cc(C(C)(C)C)nn2CC)ccn1` [Compound 283], the “Morningglory plant response rating” value in the assay on morningglory (setting [1]) is listed as 0; with morningglory (setting [3]), 10; with morningglory (setting [4]) it was 0. Besides, in the assay on morningglory (setting [2]), the “Plant response rating, Morningglory” value is recorded as 0. Besides, the “Rice plant response rating” value in the assay with rice (62 g ai/ha, scale 0 to 100) turned out to be 0; in the assay on rice (setting [6]), 0; with rice (setting [7]), 0. Moreover, the “Plant response rating, Rice” value in the assay with rice (setting [8]) was 0.
As for `C#CCNC(=O)c1cccc(NC(=O)c2sc(C(C)(C)C)nc2CC)c1` [Compound 319], the “Morningglory plant response rating” value with morningglory (setting [1]) came to 15; with morningglory (setting [3]), 60; in the assay with morningglory (setting [4]), 20. Further, the “Plant response rating, Morningglory” value in the assay on morningglory (setting [2]) came to 25. The “Rice plant response rating” value in the assay on rice (62 g ai/ha, scale 0 to 100) is 0; with rice (setting [6]) it was 35; with rice (setting [7]), 35. The “Plant response rating, Rice” value in the assay on rice (setting [8]) is given as 70.
Consider `CCn1nc(C(C)(C)C)cc1C(=O)Nc1cccc(C(=O)NCCF)c1` [Compound 45], for which the “Plant response rating, Morningglory” value with morningglory (setting [1]) and with morningglory (setting [2]) was 25 throughout. The “Morningglory plant response rating” value in the assay with morningglory (setting [9]) amounted to 15; with morningglory (Preemergence, 2000 g ai/ha, 0 to 100 scale, 0 no effect, 100 complete control) it was 75. Further, the “Rice plant response rating” value in the assay with rice (setting [5]) and in the assay with rice (setting [10]) was 30 each time. The “Plant response rating, Rice” value in the assay on rice (250 g ai/ha, scale 0 to 100 (0 no effect, 100 complete control)) was 35; in the assay on rice (setting [8]) it was 65.
Take `CCn1nc(C(C)(C)C)cc1C(=O)Nc1cccc(OCCCF)c1` [Compound 138]: the “Morningglory plant response rating” value stood at 15 in the assay with morningglory (setting [1]), 15 with morningglory (setting [9]) and 45 in the assay on morningglory (setting [3]). For the same compound, the “Plant response rating, Morningglory” value in the assay with morningglory (setting [2]) is on record as 40. Moreover, the “Rice plant response rating” value with rice (setting [5]), in the assay on rice (setting [6]) and with rice (setting [7]) was 5 in each case. Also, in the assay on rice (setting [8]), the “Plant response rating, Rice” value turned out to be 40.
Regarding `CCN(C(C)=O)C(=O)c1ccc(F)c(NC(=O)c2cc(C(C)(C)C)nn2CC)c1` [Compound 413], the entries for the “Morningglory plant response rating” value in the assay with morningglory (setting [1]), with morningglory (setting [3]) and in the assay with morningglory (setting [4]) were 10, 15 and 5, respectively. Further, the “Plant response rating, Morningglory” value in the assay on morningglory (setting [2]) was 20. For the same compound, the “Rice plant response rating” value with rice (62 g ai/ha, scale 0 to 100) amounted to 35; in the assay with rice (setting [6]) it was 45; with rice (setting [7]), 55. Besides, the “Plant response rating, Rice” value in the assay with rice (setting [8]) is reported as 70.
